Here are results for two substances from paper PMC3076140 (Journal of medicinal chemistry, 2011).

Experiment [1] relates to mouse MC1 and MC3-5 receptors.
The next experiment concerns melanocortin receptors. The note with it: lactam bridge template; cited from earlier work.

Regarding “Tyr-c[Cys-His-D-Phe-(R)-MIM(Arg)-Trp-Asn-Ala-Phe-Cys]-Tyr-NH2 [compound 7]”, in experiment [1] (from EC50 values of Table 2), the “MC4R versus MC3R selectivity” value turned out to be 5 fold. Moreover, the “agonist efficacy at all the melanocortin receptor isoforms examined” value in experiment [1] (mMC1R, mMC3R, mMC4R, mMC5R, maximal efficacy compared to NDP-MSH control) is recorded as “full agonists”. Take “Tyr-c[β-Asp-His-DPhe-Arg-Trp-Asn-Ala-Phe-Dpr]-Tyr-NH2 (sidechain bridge or staple)”: in the experiment on melanocortin receptors, the “agonist activity at the melanocortin receptors” value is reported as “full agonist at the melanocortin receptors that is as potent as the endogenous α-MSH agonist”.
